Data from patent US5801149A, “Inhibition of signal transduction molecules” (Joslin D-abetes Center, Inc., priority 1995, dated 1998).
pIC50, pKd, pKi: −log10 of the molar value. Non-standard residues stand in square brackets, D forms with d. Residues, ends and D or L forms follow the SMILES beside them. No end group written: not given here. Pmp = N[C@@H](Cc1ccc(CP(=O)(O)O)cc1)C(=O)O; dPmp = N[C@H](Cc1ccc(CP(=O)(O)O)cc1)C(=O)O; pY = N[C@@H](Cc1ccc(OP(=O)(O)O)cc1)C(=O)O

Legend:
Rat PTPase 1B = target: T1, Rat PTPase 1B (Rattus norvegicus, UniProt P20417); assay: PTPase 1B peptide dephosphorylation (Km) and inhibition (Ki); type: biochemical; conditions: for Km: apparent Km, phosphotyrosine and pY-peptides as substrates; for pKi: Pmp and Pmp-peptides as inhibitors
T1 construct: cloning the full-length cDNA into the bacterial expression vector, PKK233-2; made in house; host or cells: bacteria (vector PKK233-2)
T1 sequence (P20417 1-432): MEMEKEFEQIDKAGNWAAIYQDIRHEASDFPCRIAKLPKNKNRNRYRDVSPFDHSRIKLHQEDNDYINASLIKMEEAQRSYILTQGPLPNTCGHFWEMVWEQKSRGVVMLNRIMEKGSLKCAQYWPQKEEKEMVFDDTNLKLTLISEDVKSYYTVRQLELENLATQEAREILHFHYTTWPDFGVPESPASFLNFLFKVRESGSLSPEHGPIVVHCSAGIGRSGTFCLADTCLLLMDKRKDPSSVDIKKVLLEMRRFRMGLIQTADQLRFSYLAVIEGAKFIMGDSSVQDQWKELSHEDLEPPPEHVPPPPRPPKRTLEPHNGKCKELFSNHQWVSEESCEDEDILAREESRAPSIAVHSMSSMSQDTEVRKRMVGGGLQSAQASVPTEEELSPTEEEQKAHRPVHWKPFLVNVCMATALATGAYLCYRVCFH
Protocol: The phosphopeptides were used as substrates of PTPase 1B, a single catalytic domain PTPase with a […] tissue distribution (Hunter et al., 1989, cell 58:1013). Rat PTPase 1B (Guan et al., 1990, Proc. Natl., Acad. Sci. USA 87:1501) was obtained by PCR and cloning the full-length cDNA into the bacterial expression vector, PKK233-2.
Sequence specificity for peptide dephosphorylation was observed, with apparent Km values ranging from <2 μM for the phospho-middle t sequence to >2 mM for pTyr itself (Table 3).
Several phosphono peptides were tested for the ability to inhibit PTPase 1B activity and KI values determined by methods known to those skilled in the art.

[1] = target: T2, N-terminal p85 SH2/GST fusion protein (Homo sapiens, UniProt P27986); assay: biochemical; type: binding
T2 construct: N-terminal p85 SH2/GST fusion proteins (100 nM)
T2 sequence (P27986 333-428 limits assumed): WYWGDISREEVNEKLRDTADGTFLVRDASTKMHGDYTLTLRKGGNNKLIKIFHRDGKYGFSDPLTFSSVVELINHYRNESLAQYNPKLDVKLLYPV
Protocol: Peptide Binding to Isolated Glutathione S-Transferase/SH2 Domain Fusion Proteins was determined as follows. N-terminal p85 SH2/GST fusion proteins (100 nM) (Hu et al., 1992, Mol. Cell. Biol. 12:981-990), 35 fmol of HPLC-purified, [^125 I]Bolton-Hunter-treated phosphopeptide (67 nCi) and varying concentrations of unlabeled peptides were combined in 200 μl total volume of 20 mM tris-HCl, 250 mM NaCl, 0.1% bovine serum albumin, 10 mM dithiothreitol, pH 7.4. Glutathione-agarose (25 μl of a 1:4 aqueous slurry, Molecular Probes) was added and the samples were incubated at 22° C. for 4 h. Following centrifugation for 5 min at 12,000×g, supernatant solutions were removed by aspiration and [^125 I]radioactivity associated with the pellets was determined with a […].
Phosphopeptide and phosphonopeptide binding to p85 SH2 domains. To investigate the mechanism of phosphonopeptide inhibition of association direct binding to an isolated SH2 domain of the p85 of PI 3-kinase was analyzed. In the assay, tracer amounts of [^125 I]-labeled phosphopeptide, SH2 domain/GST fusion protein, and varying concentrations of unlabeled peptides were incubated together along with glutathione-agarose. […] ID50 values were determined as the concentration of unlabeled peptide required to inhibit 50% of specific [^125 I]phosphopeptide binding. […]

[2] = target: T3, p85 SH2 domains (SH2/GST fusion protein) (Homo sapiens, UniProt P27986); assay: Biospecific interaction analysis of binding to p85 SH2 domains; conditions: isolated SH2 domains of PI 3-kinase p85; overview statement
T3 construct: GST
T3 sequence (P27986 333-428 limits assumed): as above
Protocol: Therefore, mT-pY315 binding to p85 SH2 domains was analyzed using biospecific interaction analysis as previously described to obtain a more accurate estimate for KD. Series of data were obtained during real-time binding experiments with different concentrations of SH2/GST fusion protein (data not shown).

[3] = test system: IRS-1/PI 3-kinase association; assay: Inhibition of association of PI 3-kinase activity (CHO cell extract) with immobilized phosphorylated IRS-1; type: biochemical; conditions: dose-response studies
Protocol: Inhibiting interactions between IRS-1 and PI 3-kinase IRS-1 produced in a baculovirus expression system was adsorbed to anti-peptide (IRS-1) antibodies and phosphorylated by solubilized insulin receptors (which were then washed away). […] After incubation and additional washing, PI 3-kinase activity associated with the immobilized IRS-1 was determined as described, Auger et al. PI 3-kinase activity associated with IRS-1 only after phosphorylation by the insulin receptor. Various peptides were added during incubation of immobilized IRS-1 with the ChO cell extract (PI 3-kinase) to determine their ability to block association. Concentration dependent effects of phosphorylated vs. unphosphorylated middle T and IRS-1 […] YMXM sequences were determined. […] A detailed study of these effects is a major target of this proposal.

Row | Km (Rat PTPase 1B) | Compound | other results
1 | 30 µM | CC[C@H](C)[C@H](NC(=O)[C@H](CC(=O)O)NC(=O)[C@@H](N)CCCNC(=N)N)C(=O)N[C@@H](Cc1ccc(OP(=O)(O)O)cc1)C(=O)N[C@@H](CCC(=O)O)C(=O)N[C@H](C(=O)N[C@@H](CC(=O)O)C(=O)N[C@@H](Cc1ccc(O)cc1)C(=O)N[C@@H](Cc1ccc(O)cc1)C(=O)N[C@@H](CCCNC(=N)N)C(=O)N[C@@H](CCCCN)C(=O)O)[C@@H](C)O [1R1155-1165(pY1158), RDIpYETDYYRK] (H-RDI[pY]ETDYYRK-OH) | 
2 |  | CSCC[C@H](NC(=O)[C@@H]1CCCN1C(=O)[C@H](CCSC)NC(=O)[C@@H](Cc1ccc(CP(=O)(O)O)cc1)NC(=O)[C@H](CCC(=O)O)NC(=O)[C@H](CCC(=O)O)NC(=O)[C@@H](N)CCC(=O)O)C(=O)N[C@@H](CCC(=O)O)C(=O)N[C@@H](CC(=O)O)C(=O)N[C@@H](CC(C)C)C(=O)N[C@@H](Cc1ccc(O)cc1)C(=O)O [D-mT-Pmp315] (H-EEE[dPmp]MPMEDLY-OH) | pIC50 [1]: 3.88
3 |  | CC[C@H](C)[C@H](NC(=O)[C@H](CC(=O)O)NC(=O)[C@@H](N)CCCNC(=N)N)C(=O)N[C@@H](Cc1ccc(CP(=O)(O)O)cc1)C(=O)N[C@@H](CCC(=O)O)C(=O)N[C@H](C(=O)N[C@@H](CC(=O)O)C(=O)N[C@@H](Cc1ccc(O)cc1)C(=O)N[C@@H](Cc1ccc(O)cc1)C(=O)N[C@@H](CCCNC(=N)N)C(=O)N[C@@H](CCCCN)C(=O)O)[C@@H](C)O [IR1155-1165(L-Pmp1158), RDI[L-Pmp]ETDYYRK] (H-RDI[Pmp]ETDYYRK-OH; N-terminus assumed) | pKi (Rat PTPase 1B): 4.52
4 |  | CC[C@H](C)[C@H](NC(=O)[C@H](CC(=O)O)NC(=O)[C@@H](N)CCCNC(=N)N)C(=O)N[C@H](Cc1ccc(CP(=O)(O)O)cc1)C(=O)N[C@@H](CCC(=O)O)C(=O)N[C@H](C(=O)N[C@@H](CC(=O)O)C(=O)N[C@@H](Cc1ccc(O)cc1)C(=O)N[C@@H](Cc1ccc(O)cc1)C(=O)N[C@@H](CCCNC(=N)N)C(=O)N[C@@H](CCCCN)C(=O)O)[C@@H](C)O [IR1155-1165(d-Pmp1158), RDI[D-Pmp]ETDYYRK] (H-RDI[dPmp]ETDYYRK-OH; N-terminus assumed) | pKi (Rat PTPase 1B): 4.52
5 | 40 µM | CC[C@H](C)[C@H](NC(=O)[C@H](CC(=O)O)NC(=O)[C@@H](N)CCCNC(=N)N)C(=O)N[C@@H](Cc1ccc(O)cc1)C(=O)N[C@@H](CCC(=O)O)C(=O)N[C@H](C(=O)N[C@@H](CC(=O)O)C(=O)N[C@@H](Cc1ccc(OP(=O)(O)O)cc1)C(=O)N[C@@H](Cc1ccc(O)cc1)C(=O)N[C@@H](CCCNC(=N)N)C(=O)N[C@@H](CCCCN)C(=O)O)[C@@H](C)O [IR1155-1165(pY1162), RDIYETDpYYRK] (H-RDIYETD[pY]YRK-OH) | 
6 | 30 µM | CC[C@H](C)[C@H](NC(=O)[C@H](CC(=O)O)NC(=O)[C@@H](N)CCCNC(=N)N)C(=O)N[C@@H](Cc1ccc(O)cc1)C(=O)N[C@@H](CCC(=O)O)C(=O)N[C@H](C(=O)N[C@@H](CC(=O)O)C(=O)N[C@@H](Cc1ccc(O)cc1)C(=O)N[C@@H](Cc1ccc(OP(=O)(O)O)cc1)C(=O)N[C@@H](CCCNC(=N)N)C(=O)N[C@@H](CCCCN)C(=O)O)[C@@H](C)O [IR1155-1165(pY1163), RDIYETDYpYRK] (H-RDIYETDY[pY]RK-OH) | 
7 | 30 µM | CSCC[C@H](NC(=O)[C@@H]1CCCN1C(=O)[C@H](CCSC)NC(=O)[C@H](Cc1ccc(OP(=O)(O)O)cc1)NC(=O)CNC(=O)[C@H](CC(=O)O)NC(=O)[C@H](CC(=O)O)NC(=O)[C@@H](N)[C@@H](C)O)C(=O)N[C@@H](CO)C(=O)N1CCC[C@H]1C(=O)NCC(=O)N[C@H](C(=O)O)C(C)C [IRS-1(pY608), TDDGpYMPMSPGV] (H-TDDG[pY]MPMSPGV-OH) | 
8 | 100 µM | CSCC[C@H](NC(=O)[C@@H]1CCCN1C(=O)[C@H](CCSC)NC(=O)[C@H](Cc1ccc(OP(=O)(O)O)cc1)NC(=O)[C@H](CC(=O)O)NC(=O)CNC(=O)[C@H](CC(N)=O)NC(=O)CN)C(=O)N[C@@H](CO)C(=O)N1CCC[C@H]1C(=O)N[C@@H](CCCCN)C(=O)N[C@@H](CO)C(=O)O [IRS-1(pY628), GNGDpYMPMSPKS] (H-GNGD[pY]MPMSPKS-OH) | 
9 |  | CSCC[C@H](NC(=O)[C@@H]1CCCN1C(=O)[C@H](CCSC)NC(=O)[C@H](Cc1ccc(CP(=O)(O)O)cc1)NC(=O)[C@H](CCC(=O)O)NC(=O)[C@H](CCC(=O)O)NC(=O)[C@@H](N)CCC(=O)O)C(=O)N[C@@H](CCC(=O)O)C(=O)N[C@@H](CC(=O)O)C(=O)N[C@@H](CC(C)C)C(=O)N[C@@H](Cc1ccc(O)cc1)C(=O)O [L-mT-Pmp315] (H-EEE[Pmp]MPMEDLY-OH) | pKd [2]: 7.70 to 8.00; pIC50 [1]: 5.14
10 | 8 µM | CC[C@H](C)[C@H](NC(=O)[C@H](CO)NC(=O)[C@H](CCC(=O)O)NC(=O)[C@H](CC(=O)O)NC(=O)[C@@H](N)CCCCN)C(=O)N[C@@H](CC(=O)O)C(=O)N[C@@H](Cc1ccc(OP(=O)(O)O)cc1)C(=O)N[C@H](C(=O)N1CCC[C@H]1C(=O)N[C@@H](CCSC)C(=O)N[C@@H](CC(C)C)C(=O)N[C@@H](CC(=O)O)C(=O)N[C@@H](CCSC)C(=O)N[C@@H](CCCCN)C(=O)NCC(=O)N[C@@H](CC(=O)O)C(=O)O)C(C)C [mPDGF-Rβ(pY719), KDESIDpYVPMLDMKGD] (H-KDESID[pY]VPMLDMKGD-OH) | 
11 | 8 µM | C[C@@H](O)[C@H](N)C(=O)N[C@@H](CCC(=O)O)C(=O)N1CCC[C@H]1C(=O)N[C@@H](CCC(=O)O)C(=O)N[C@@H](Cc1ccc(OP(=O)(O)O)cc1)C(=O)N[C@@H](CCC(N)=O)C(=O)N1CCC[C@H]1C(=O)NCC(=O)N[C@@H](CCC(=O)O)C(=O)O [pp60^c-src (pYS27), TEPEpYQPGE] (H-TEPE[pY]QPGE-OH) | 
12 |  | RDIPmpETDPmpPmpRK [IR1155-1165(D,L-Pmp3)] | pKi (Rat PTPase 1B): > 5.70
13 |  | pY628: phosphorylated form of IRS-1 YMXM sequence Y628 (SEQ ID NO: 26, Table 1) (RKGNGDG[pY]MPMSPKSV) | ED50 for inhibition of IRS-1/PI 3-kinase association [3]: ≤ 0.05 µM

Row | Compound | Km (Rat PTPase 1B) | other results
14 | CC[C@H](C)[C@H](NC(=O)[C@H](CCC(N)=O)NC(=O)[C@@H]1CCCN1C(=O)[C@H](C)NC(=O)[C@H](CCSC)NC(=O)[C@@H]1CCCN1C(=O)[C@H](CCSC)NC(=O)[C@H](Cc1ccc(OP(=O)(O)O)cc1)NC(=O)[C@H](CCC(=O)O)NC(=O)[C@H](CC(N)=O)NC(=O)[C@H](CCC(=O)O)NC(=O)[C@@H](N)CCCNC(=N)N)C(=O)N[C@@H](Cc1c[nH]cn1)C(=O)O [middle t(pY298), RENEpYMPMAPQIH] (H-RENE[pY]MPMAPQIH-OH) | < 2 µM | 
